Measurements taken from publication PMC4035740 (The Journal of General Physiology, 2014).
Positions count from the first letter of the chain named. Where two headings read alike, the source gives them in different places.

How the values were obtained:
Format in all cases: cell-based
[1] = biological target: T1, rat P2X2 tandem trimer WT–K308A&K69A–WT (Rattus norvegicus, UniProt P49653, K308A/K69A); experiment: Hetero-assembly test, activation by ATP, WT–K308A&K69A–WT; settings: 1 mM [ATP], days 1 and 2 after RNA injection
T1 sequence (P49653 1-472) 1: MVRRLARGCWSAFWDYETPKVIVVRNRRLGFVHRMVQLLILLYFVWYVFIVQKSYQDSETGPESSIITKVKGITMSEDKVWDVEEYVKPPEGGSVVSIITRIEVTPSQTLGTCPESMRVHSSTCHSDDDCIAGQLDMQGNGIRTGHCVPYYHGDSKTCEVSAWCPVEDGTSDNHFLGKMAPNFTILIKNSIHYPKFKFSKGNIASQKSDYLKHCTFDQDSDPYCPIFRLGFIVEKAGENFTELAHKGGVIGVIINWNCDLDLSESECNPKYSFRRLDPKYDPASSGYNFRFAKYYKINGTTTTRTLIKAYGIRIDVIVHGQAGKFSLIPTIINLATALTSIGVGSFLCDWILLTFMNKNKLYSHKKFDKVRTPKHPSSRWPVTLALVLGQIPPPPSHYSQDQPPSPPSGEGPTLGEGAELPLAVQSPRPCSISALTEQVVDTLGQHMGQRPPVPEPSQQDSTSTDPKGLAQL
T1 sequence (P49653 1-472 K69A/K308A): T1 sequence (P49653 1-472) 1 with K69A, K308A
T1 sequence (P49653 1-472) 3: T1 sequence (P49653 1-472) 1

rat P2X2 K308A = biological target: T2, rat P2X2 K308A (Rattus norvegicus, UniProt P49653, K308A); experiment: ATP activation of the K308A mutant channel; settings: K308A mutation, very high concentrations of ATP (>3 mM)
T2 sequence (P49653 1-472 K308A): T1 sequence (P49653 1-472) 1 with K308A

[2] = biological target: T3, rat P2X2 tandem trimer WT–K308A–WT (Rattus norvegicus, UniProt P49653, K308A); experiment: ATP dose–response, two-electrode voltage clamp in Xenopus oocytes, WT–K308A–WT
T3 sequence (P49653 1-472) 1: T1 sequence (P49653 1-472) 1
T3 sequence (P49653 1-472 K308A): T1 sequence (P49653 1-472) 1 with K308A
T3 sequence (P49653 1-472) 3: T1 sequence (P49653 1-472) 1

[3] = biological target: T4, rat P2X2 tandem trimer WT–WT–K308A&K69A (Rattus norvegicus, UniProt P49653, K308A/K69A); experiment: Hetero-assembly test, activation by ATP, WT–WT–K308A&K69A; settings: 1 mM [ATP], days 1 and 2 after RNA injection
T4 sequence (P49653 1-472) 1: T1 sequence (P49653 1-472) 1
T4 sequence (P49653 1-472) 2: T1 sequence (P49653 1-472) 1
T4 sequence (P49653 1-472 K69A/K308A): T1 sequence (P49653 1-472) 1 with K69A, K308A

[4] = biological target: T5, rat P2X2 tandem trimer K308A–WT–WT (Rattus norvegicus, UniProt P49653, K308A); experiment: ATP dose–response, two-electrode voltage clamp in Xenopus oocytes, K308A–WT–WT
T5 sequence (P49653 1-472 K308A): T1 sequence (P49653 1-472) 1 with K308A
T5 sequence (P49653 1-472) 2: T1 sequence (P49653 1-472) 1
T5 sequence (P49653 1-472) 3: T1 sequence (P49653 1-472) 1

[5] = biological target: T6, rat P2X2 tandem trimer D315A–WT–WT (Rattus norvegicus, UniProt P49653, D315A); experiment: ATP dose–response, two-electrode voltage clamp in Xenopus oocytes, D315A–WT–WT
T6 sequence (P49653 1-472 D315A): T1 sequence (P49653 1-472) 1 with D315A
T6 sequence (P49653 1-472) 2: T1 sequence (P49653 1-472) 1
T6 sequence (P49653 1-472) 3: T1 sequence (P49653 1-472) 1

[6] = biological target: T7, rat P2X2 tandem trimer WT–T339S–WT (Rattus norvegicus, UniProt P49653, T339S); experiment: ATP dose–response, two-electrode voltage clamp in Xenopus oocytes, WT–T339S–WT
T7 sequence (P49653 1-472) 1: T1 sequence (P49653 1-472) 1
T7 sequence (P49653 1-472 T339S): T1 sequence (P49653 1-472) 1 with T339S
T7 sequence (P49653 1-472) 3: T1 sequence (P49653 1-472) 1

rat P2X2 WT = biological target: T8, rat P2X2 WT (Rattus norvegicus, UniProt P49653); experiment: ATP dose–response, two-electrode voltage clamp in Xenopus oocytes, WT
T8 sequence (P49653 1-472): T1 sequence (P49653 1-472) 1

[7] = biological target: T9, rat P2X2 tandem trimer WT–WT–WT (Rattus norvegicus, UniProt P49653); experiment: ATP dose–response, two-electrode voltage clamp in Xenopus oocytes, WT–WT–WT
T9 sequence (P49653 1-472) 1: T1 sequence (P49653 1-472) 1
T9 sequence (P49653 1-472) 2: T1 sequence (P49653 1-472) 1
T9 sequence (P49653 1-472) 3: T1 sequence (P49653 1-472) 1

[8] = biological target: T10, rat P2X2 tandem trimer D315A–D315A–WT (Rattus norvegicus, UniProt P49653, D315A); settings: at −160 mV
T10 sequence (P49653 1-472 D315A) 1: T1 sequence (P49653 1-472) 1 with D315A
T10 sequence (P49653 1-472 D315A) 2: T1 sequence (P49653 1-472) 1 with D315A
T10 sequence (P49653 1-472): T1 sequence (P49653 1-472) 1

[9] = biological target: T11, rat P2X2 tandem trimer WT–T339S–T339S (Rattus norvegicus, UniProt P49653, T339S)
T11 sequence (P49653 1-472): T1 sequence (P49653 1-472) 1
T11 sequence (P49653 1-472 T339S) 2: T1 sequence (P49653 1-472) 1 with T339S
T11 sequence (P49653 1-472 T339S) 3: T1 sequence (P49653 1-472) 1 with T339S

[10] = biological target: T12, rat P2X2 tandem trimer WT–WT–K308A (Rattus norvegicus, UniProt P49653, K308A); experiment: ATP dose–response, two-electrode voltage clamp in Xenopus oocytes, WT–WT–K308A
T12 sequence (P49653 1-472) 1: T1 sequence (P49653 1-472) 1
T12 sequence (P49653 1-472) 2: T1 sequence (P49653 1-472) 1
T12 sequence (P49653 1-472 K308A): T1 sequence (P49653 1-472) 1 with K308A

[11] = biological target: T13, rat P2X2 tandem trimer K308A&K69A–WT–WT (Rattus norvegicus, UniProt P49653, K308A/K69A); experiment: Hetero-assembly test, activation by ATP, K308A&K69A–WT–WT; settings: 1 mM [ATP], days 1 and 2 after RNA injection
T13 sequence (P49653 1-472 K69A/K308A): T1 sequence (P49653 1-472) 1 with K69A, K308A
T13 sequence (P49653 1-472) 2: T1 sequence (P49653 1-472) 1
T13 sequence (P49653 1-472) 3: T1 sequence (P49653 1-472) 1

[12] = biological target: T14, rat P2X2 tandem trimer T339S–T339S–T339S (Rattus norvegicus, UniProt P49653, T339S)
T14 sequence (P49653 1-472 T339S) 1: T1 sequence (P49653 1-472) 1 with T339S
T14 sequence (P49653 1-472 T339S) 2: T1 sequence (P49653 1-472) 1 with T339S
T14 sequence (P49653 1-472 T339S) 3: T1 sequence (P49653 1-472) 1 with T339S

rat P2X2 D315A = biological target: T15, rat P2X2 D315A (Rattus norvegicus, UniProt P49653, D315A); experiment: ATP dose–response, two-electrode voltage clamp in Xenopus oocytes, D315A; settings: at −160 mV
T15 sequence (P49653 1-472 D315A): T1 sequence (P49653 1-472) 1 with D315A

[13] = biological target: T16, rat P2X2 tandem trimer D315A–D315A–D315A (Rattus norvegicus, UniProt P49653, D315A); settings: at −160 mV
T16 sequence (P49653 1-472 D315A) 1: T1 sequence (P49653 1-472) 1 with D315A
T16 sequence (P49653 1-472 D315A) 2: T1 sequence (P49653 1-472) 1 with D315A
T16 sequence (P49653 1-472 D315A) 3: T1 sequence (P49653 1-472) 1 with D315A

SMILES: Nc1ncnc2c1ncn2[C@@H]1O[C@H](COP(=O)(O)OP(=O)(O)OP(=O)(O)O)[C@@H](O)[C@H]1O [ATP, adenosine triphosphate]
- activation in response to ATP [1]: did not show any prominent activation
- channel response to ATP (rat P2X2 K308A): unresponsive
- EC50 [2]: 22.9 ± 1.8 µM
- activation in response to ATP [3]: did not show any prominent activation
- EC50 [4]: 42.3 ± 2.2 µM
- Hill coefficient ([4]; K308A–WT–WT, at −160 mV, mean ± SEM): 1.7 ± 0.18
- EC50 [5]: 6.02 ± 1.1 µM
- Hill ([5]; D315A–WT–WT, at −160 mV): 1.4 ± 0.1
- EC50 [6]: 12.2 ± 1.2 µM
- Hill ([6]; WT–T339S–WT, at −160 mV): 1.5 ± 0.9
- EC50 (rat P2X2 WT): 14.5 ± 1.2 µM
- Hill coefficient (rat P2X2 WT; WT, at −160 mV, Xenopus oocytes, mean ± SEM): 1.7 ± 0.2
- EC50 [7]: 19.1 ± 2 µM
- EC50 ([8]; EC50 (1), first phase): 3.15 ± 0.9 µM
- EC50 ([8]; EC50 (2), second phase): 794 ± 12 µM
- EC50 [9]: 6 ± 0.4 µM
- Hill ([9]; WT–T339S–T339S, at −160 mV): 1.5 ± 0.2
- EC50 [10]: 33.3 ± 1.65 µM
- Hill coefficient ([10]; WT–WT–K308A, at −160 mV, mean ± SEM): 1.6 ± 1.4
- activation in response to ATP [11]: did not show any prominent activation
- EC50 [12]: 2.4 ± 0.4 µM
- Hill ([12]; T339S–T339S–T339S, at −160 mV): 1.5 ± 0.3
- EC50 (rat P2X2 D315A; EC50 (1), first phase of biphasic dose–response): 1.2 ± 0.6 µM
- EC50 (rat P2X2 D315A; EC50 (2), second phase of biphasic dose–response): 89.1 ± 1.48 µM
- Hill (1) (rat P2X2 D315A; first phase): 2.4 ± 0.7
- EC50 ([13]; EC50 (1), first phase): 1.5 ± 0.8 µM
- EC50 ([13]; EC50 (2), second phase): 130 ± 5 µM
- Hill (1) ([13]; first phase): 3.7 ± 0.6
